Data on ten compounds can be found in ChEMBL document CHEMBL6109063, “Discovery of dual PARP/NAMPT inhibitors for the treatment of BRCA wild-type triple-negative breast cancer” (Bioorg Med Chem Lett, 2025).

The structures appear in SMILES notation. pIC50: −log10 of the molar value. Activity calls are given as the source filed them. The calls are words filed in the database; no cut-off is given here. Bounds are passed on as bounds.

For experiment [1], the target named is Poly [ADP-ribose] polymerase 1 (Homo sapiens, UniProt P09874). The experiment is described as follows: Inhibition of PARP1 (unknown origin).
Experiment [2] has as its target Nicotinamide phosphoribosyltransferase (Homo sapiens, UniProt P43490). The experiment is described as follows: Inhibition of NAMPT (unknown origin).
In experiment [3] the test system is MDA-MB-231. The experiment is described as follows: Synergistic anti-proliferative activity against human MDA-MB-231 cells harboring wild-type BRCA assessed as combination index at 10 to 40 uM in presence of olaparib. Particulars: dose 10-40 µM. Type of experiment: functional.
Experiment [4] deals with MDA-MB-231. The experiment is described as follows: Induction of apoptosis in human MDA-MB-231 cells harboring wild-type BRCA assessed as viable cells at 15 uM incubated for 48 hrs by Annexin V-FITC/PI staining based flow cytometry analysis (reference value: 94.3%). The experiment is classed as functional. To be noted: read-out: Activity. (In general: Flow cytometry measures light scatter and fluorescence of single cells or particles in a stream.)

Experiment [5] deals with MDA-MB-231. The experiment is described as follows: Induction of apoptosis in human MDA-MB-231 cells harboring wild-type BRCA assessed as early apoptotic cells at 15 uM incubated for 48 hrs by Annexin V-FITC/PI staining based flow cytometry analysis (reference value: 1.60%). The experiment is classed as functional.
Experiment [6] concerns MDA-MB-231. Briefly: Induction of apoptosis in human MDA-MB-231 cells harboring wild-type BRCA assessed as late apoptotic cells at 15 uM incubated for 48 hrs by Annexin V-FITC/PI staining based flow cytometry analysis (reference value: 2.38%). Type of experiment: functional.
For experiment [7], the system named is MDA-MB-231. The experiment is described as follows: Induction of apoptosis in human MDA-MB-231 cells harboring wild-type BRCA assessed as necrotic cells at 15 uM incubated for 48 hrs by Annexin V-FITC/PI staining based flow cytometry analysis (reference value: 1.68%). The experiment is classed as functional.
The subject of experiment [8] is MDA-MB-231. Briefly: Induction of apoptosis in human MDA-MB-231 cells harboring wild-type BRCA assessed as viable cells at 15 uM incubated for 48 hrs in presence of Olaparib by Annexin V-FITC/PI staining based flow cytometry analysis (reference value: 94.3%). The experiment is classed as functional. Particulars: read-out: Activity.
Experiment [9] concerns MDA-MB-231. Briefly: Induction of apoptosis in human MDA-MB-231 cells harboring wild-type BRCA assessed as early apoptotic cells at 15 uM incubated for 48 hrs in presence of Olaparib by Annexin V-FITC/PI staining based flow cytometry analysis (reference value: 1.60%). The experiment is classed as functional.
The subject of experiment [10] is MDA-MB-231. Briefly: Induction of apoptosis in human MDA-MB-231 cells harboring wild-type BRCA assessed as late apoptotic cells at 15 uM incubated for 48 hrs in presence of Olaparib by Annexin V-FITC/PI staining based flow cytometry analysis (reference value: 2.38%). The experiment is classed as functional.
Experiment [11] relates to MDA-MB-231. The experiment is described as follows: Induction of apoptosis in human MDA-MB-231 cells harboring wild-type BRCA assessed as necrotic cells at 15 uM incubated for 48 hrs in presence of Olaparib by Annexin V-FITC/PI staining based flow cytometry analysis (reference value: 1.68%). The experiment is classed as functional.
For another experiment, the system named is MDA-MB-436. The experiment is described as follows: cells. Particulars: Homo sapiens.
Experiment [12] deals with MDA-MB-231. Briefly: cells. Particulars: Homo sapiens.
The subject of experiment [13] is MDA-MB-231. The experiment is described as follows: Induction of DNA damage in human MDA-MB-231 cells assessed as increase in gammaH2AX levels at 5 to 10 uM incubated for 48 hrs by DAPI staining based Immunofluorescence analysis. Type of experiment: functional, cell-based. To be noted: dose 5-10 µM.
Experiment [14] has as its system MDA-MB-231. The experiment is described as follows: Induction of apoptosis in human MDA-MB-231 cells harboring wild-type BRCA assessed as viable cells at 10 uM incubated for 48 hrs by Annexin V-FITC/PI staining based flow cytometry analysis (reference value: 94.3%). Type of experiment: functional. To be noted: read-out: Activity.
Experiment [15] concerns MDA-MB-231. The experiment is described as follows: Induction of apoptosis in human MDA-MB-231 cells harboring wild-type BRCA assessed as early apoptotic cells at 10 uM incubated for 48 hrs by Annexin V-FITC/PI staining based flow cytometry analysis (reference value: 1.60%). The experiment is classed as functional.
The test system of experiment [16] is MDA-MB-231. Briefly: Induction of apoptosis in human MDA-MB-231 cells harboring wild-type BRCA assessed as late apoptotic cells at 10 uM incubated for 48 hrs by Annexin V-FITC/PI staining based flow cytometry analysis (reference value: 2.38%). The experiment is classed as functional.
Experiment [17] relates to MDA-MB-231. The experiment is described as follows: Induction of apoptosis in human MDA-MB-231 cells harboring wild-type BRCA assessed as necrotic cells at 10 uM incubated for 48 hrs by Annexin V-FITC/PI staining based flow cytometry analysis (reference value: 1.68%). Type of experiment: functional.
In experiment [18] the test system is MDA-MB-231. Briefly: Induction of apoptosis in human MDA-MB-231 cells harboring wild-type BRCA assessed as viable cells at 5 uM incubated for 48 hrs by Annexin V-FITC/PI staining based flow cytometry analysis (reference value: 94.3%). Type of experiment: functional. To be noted: read-out: Activity.
The test system of experiment [19] is MDA-MB-231. The experiment is described as follows: Induction of apoptosis in human MDA-MB-231 cells harboring wild-type BRCA assessed as early apoptotic cells at 5 uM incubated for 48 hrs by Annexin V-FITC/PI staining based flow cytometry analysis (reference value: 1.60%). The experiment is classed as functional.
Experiment [20] concerns MDA-MB-231. The experiment is described as follows: Induction of apoptosis in human MDA-MB-231 cells harboring wild-type BRCA assessed as late apoptotic cells at 5 uM incubated for 48 hrs by Annexin V-FITC/PI staining based flow cytometry analysis (reference value: 2.38%). The experiment is classed as functional.
In experiment [21] the test system is MDA-MB-231. The experiment is described as follows: Induction of apoptosis in human MDA-MB-231 cells harboring wild-type BRCA assessed as necrotic cells at 5 uM incubated for 48 hrs by Annexin V-FITC/PI staining based flow cytometry analysis (reference value: 1.68%). The experiment is classed as functional.
The test system of experiment [22] is MDA-MB-231. Briefly: Downregulation of BRCA1 level in human MDA-MB-231 cells at 5 to 10 uM by Western blot analysis. The experiment is classed as functional, cell-based. Particulars: dose 5-10 µM. For orientation: In western blotting, separated proteins are transferred to a membrane and probed.
In experiment [23] the test system is MDA-MB-231. Briefly: Downregulation of Rad51 level in human MDA-MB-231 cells at 5 to 10 uM by Western blot analysis. Type of experiment: functional, cell-based. To be noted: dose 5-10 µM.
The subject of experiment [24] is MDA-MB-231. Briefly: Induction of apoptosis in human MDA-MB-231 cells harboring wild-type BRCA incubated for 48 hrs by Annexin V-FITC/PI staining based flow cytometry analysis. Type of experiment: functional, cell-based. To be noted: dose 5-10 µM.
Experiment [25] has as its system MDA-MB-231. Briefly: Antimigratory activity against human MDA-MB-231 cells at 10 uM incubated for 48 hrs by wound healing assay. The experiment is classed as functional, cell-based.
For experiment [26], the system named is MDA-MB-231. The experiment is described as follows: Antimigratory activity against human MDA-MB-231 cells at 10 uM incubated for 48 hrs by Transwell migration assay. Type of experiment: functional, cell-based.
Experiment [27] has as its system MDA-MB-231. The experiment is described as follows: Induction of apoptosis in human MDA-MB-231 cells harboring wild-type BRCA assessed as viable cells at 10 uM incubated for 48 hrs in presence of GNE-617 by Annexin V-FITC/PI staining based flow cytometry analysis (reference value: 94.3%). The experiment is classed as functional. To be noted: read-out: Activity.

Experiment [28] relates to MDA-MB-231. The experiment is described as follows: Induction of apoptosis in human MDA-MB-231 cells harboring wild-type BRCA assessed as early apoptotic cells at 10 uM incubated for 48 hrs in presence of GNE-617 by Annexin V-FITC/PI staining based flow cytometry analysis (reference value: 1.60%). Type of experiment: functional.
The test system of experiment [29] is MDA-MB-231. Briefly: Induction of apoptosis in human MDA-MB-231 cells harboring wild-type BRCA assessed as late apoptotic cells at 10 uM incubated for 48 hrs in presence of GNE-617 by Annexin V-FITC/PI staining based flow cytometry analysis (reference value: 2.38%). The experiment is classed as functional.
Experiment [30] relates to MDA-MB-231. Briefly: Induction of apoptosis in human MDA-MB-231 cells harboring wild-type BRCA assessed as necrotic cells at 10 uM incubated for 48 hrs in presence of GNE-617 by Annexin V-FITC/PI staining based flow cytometry analysis (reference value: 1.68%). Type of experiment: functional.

Chain of Poly [ADP-ribose] polymerase 1 (P09874 whole entry): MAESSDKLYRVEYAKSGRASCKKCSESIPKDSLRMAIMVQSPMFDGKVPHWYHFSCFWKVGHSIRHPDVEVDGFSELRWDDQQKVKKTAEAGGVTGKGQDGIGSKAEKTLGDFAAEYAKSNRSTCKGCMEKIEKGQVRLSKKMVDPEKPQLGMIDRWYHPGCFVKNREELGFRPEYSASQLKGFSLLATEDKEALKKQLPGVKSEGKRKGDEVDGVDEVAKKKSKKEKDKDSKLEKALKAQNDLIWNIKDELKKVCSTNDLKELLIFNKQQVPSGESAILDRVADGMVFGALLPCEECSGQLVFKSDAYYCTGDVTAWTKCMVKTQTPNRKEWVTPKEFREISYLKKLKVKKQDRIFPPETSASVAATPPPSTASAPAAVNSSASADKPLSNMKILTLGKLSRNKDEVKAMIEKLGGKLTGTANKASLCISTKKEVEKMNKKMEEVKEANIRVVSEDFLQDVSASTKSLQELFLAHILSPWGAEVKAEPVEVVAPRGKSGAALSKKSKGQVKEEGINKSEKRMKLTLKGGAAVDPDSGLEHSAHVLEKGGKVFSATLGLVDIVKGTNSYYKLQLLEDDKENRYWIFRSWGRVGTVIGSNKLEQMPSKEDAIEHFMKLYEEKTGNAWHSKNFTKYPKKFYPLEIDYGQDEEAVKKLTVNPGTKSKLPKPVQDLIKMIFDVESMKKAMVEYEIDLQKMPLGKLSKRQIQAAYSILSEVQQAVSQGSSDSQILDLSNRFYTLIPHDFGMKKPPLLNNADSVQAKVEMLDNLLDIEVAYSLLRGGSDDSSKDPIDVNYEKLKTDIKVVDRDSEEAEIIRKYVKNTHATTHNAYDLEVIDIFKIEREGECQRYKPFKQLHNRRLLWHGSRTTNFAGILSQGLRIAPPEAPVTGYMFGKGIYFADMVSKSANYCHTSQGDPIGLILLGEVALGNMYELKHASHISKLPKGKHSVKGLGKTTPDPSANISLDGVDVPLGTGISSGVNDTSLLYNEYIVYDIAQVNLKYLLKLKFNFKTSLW
Chain of Nicotinamide phosphoribosyltransferase (P43490 whole entry): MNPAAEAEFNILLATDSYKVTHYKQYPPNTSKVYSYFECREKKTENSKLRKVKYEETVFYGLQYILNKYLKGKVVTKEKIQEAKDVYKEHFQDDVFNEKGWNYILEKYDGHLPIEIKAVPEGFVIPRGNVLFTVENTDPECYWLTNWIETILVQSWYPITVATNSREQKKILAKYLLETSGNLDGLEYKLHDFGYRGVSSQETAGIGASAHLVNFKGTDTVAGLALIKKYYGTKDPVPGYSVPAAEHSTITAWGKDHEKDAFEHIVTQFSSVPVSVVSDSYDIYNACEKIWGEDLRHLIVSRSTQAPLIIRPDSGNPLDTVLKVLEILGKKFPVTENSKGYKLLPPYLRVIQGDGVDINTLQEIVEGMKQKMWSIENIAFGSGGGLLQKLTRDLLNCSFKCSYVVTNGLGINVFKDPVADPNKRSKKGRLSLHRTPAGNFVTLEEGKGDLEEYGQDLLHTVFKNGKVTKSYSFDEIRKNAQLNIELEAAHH

Take `O=C(NCCCCN1CCN(C(=O)c2cc(Cc3n[nH]c(=O)c4ccccc34)ccc2F)CC1)c1ccc2nccn2c1`: the pIC50 in [1] was 9.00; in experiment [2], 7.14.

Take `O=C(NCCCCCN1CCN(C(=O)c2cc(Cc3n[nH]c(=O)c4ccccc34)ccc2F)CC1)c1ccc2nccn2c1`: in experiment [1], the pIC50 was 8.74.

As for `O=C(NCc1ccc(S(=O)(=O)c2cc(F)cc(F)c2)cc1)c1ccc2nccn2c1`, the CI in the experiment on MDA-MB-231 [3] is below 1. In addition, the viability at 15 µM worked out at 82.7% with MDA-MB-231 [4] and 64% in the experiment on MDA-MB-231 [8]. The Activity in the experiment on MDA-MB-231 [5] was 17%; with MDA-MB-231 [6] it was 0.19%; with MDA-MB-231 [7], 0.023%; in the experiment with MDA-MB-231 [9], 34.6%; with MDA-MB-231 [10], 1.38%; with MDA-MB-231 [11], 0.023%. Moreover, the pIC50 with MDA-MB-436 was 4.47; with MDA-MB-231 [12], 4.29.

On to `O=C(/C=C/c1cccnc1)NCCCCCN1CCN(C(=O)c2cc(Cc3n[nH]c(=O)c4ccccc34)ccc2F)CC1`, for which the pIC50 in [1] was 8.80; in experiment [2] it was 7.85; in the experiment on MDA-MB-436, 5.95; in the experiment with MDA-MB-231 [12], 5.60.

Compound `O=C(/C=C/c1cccnc1)NCCN1CCN(C(=O)c2cc(Cc3n[nH]c(=O)c4ccccc34)ccc2F)CC1` gave a pIC50 in experiment [2] of 7.03.

Turning to `O=C(NCCCCCCN1CCN(C(=O)c2cc(Cc3n[nH]c(=O)c4ccccc34)ccc2F)CC1)c1ccc2nccn2c1`, the result in the experiment with MDA-MB-231 [13], in the experiment with MDA-MB-231 [22], in the experiment with MDA-MB-231 [23], in the experiment with MDA-MB-231 [25] and in the experiment with MDA-MB-231 [26] was Active. The pIC50 is 9.10 in experiment [1], 7.74 in experiment [2], 6.02 in the experiment with MDA-MB-436 and 6.15 in the experiment with MDA-MB-231 [12]. Moreover, the viability at 10 µM with MDA-MB-231 [14] came to 49.3%. For the same compound, the Activity in the experiment with MDA-MB-231 [15] is reported as 44.2%; with MDA-MB-231 [16], 6.09%; with MDA-MB-231 [17], 0.41%; in the experiment on MDA-MB-231 [19], 29.8%; with MDA-MB-231 [20], 1.84%; in the experiment with MDA-MB-231 [21], 0.031%. Further, in the experiment with MDA-MB-231 [24], the Activity result is “Dose-dependent-effect”. In the experiment on MDA-MB-231 [18], the viability at 5 µM was 68.3%.

`O=C(/C=C/c1cccnc1)NCCCCN1CCN(C(=O)c2cc(Cc3n[nH]c(=O)c4ccccc34)ccc2F)CC1`: the pIC50 in [1] was 9.05; in experiment [2], 8.00; in the experiment on MDA-MB-436, 5.84; in the experiment with MDA-MB-231 [12], 5.38.

As to `O=C(/C=C/c1cccnc1)NCCCCCCN1CCN(C(=O)c2cc(Cc3n[nH]c(=O)c4ccccc34)ccc2F)CC1`, the pIC50 in [1] was 9.00; in experiment [2], 6.46.

Turning to `O=C(c1cc(Cc2n[nH]c(=O)c3ccccc23)ccc1F)N1CCN(C(=O)C2CC2)CC1` [OLAPARIB], the figures for the viability at 10 µM with MDA-MB-231 [14] and in the experiment on MDA-MB-231 [27] were 87.5% and 64%, respectively. Further, the Activity was 12.4% with MDA-MB-231 [15]; 0.041% in the experiment with MDA-MB-231 [16]; 0.006% in the experiment on MDA-MB-231 [17]; 34.6% in the experiment on MDA-MB-231 [28]; 1.38% in the experiment with MDA-MB-231 [29]; 0.023% in the experiment with MDA-MB-231 [30]. Moreover, the pIC50 in the experiment with MDA-MB-436 was 5.93; in the experiment on MDA-MB-231 [12] it was 4.53.

`O=C(/C=C/c1cccnc1)NCCCN1CCN(C(=O)c2cc(Cc3n[nH]c(=O)c4ccccc34)ccc2F)CC1`: the pIC50 in experiment [1] is 9.22; in experiment [2], 7.17.

A word on the pIC50: it is the negative decadic logarithm of the IC50, by convention in mol/L.
